Measured values published in publication PMC6152393, “Rational Design of Cyclic Antimicrobial Peptides Based on BPC194 and BPC198” (Molecules : A Journal of Synthetic Chemistry and Natural …, 2017).
Peptide text beside a SMILES is read from it.

Key:
Type in all cases: cell-based
[1] = system: Erwinia amylovora PMV6076; experiment: Antibacterial activity (MIC), growth inhibition in microtiter plates; conditions: Trypticase Soy Broth, 25 °C, 48 h, OD 600 nm (Bioscreen C), peptides at 3.1, 6.2, 12.5, 25, 50 μM, three replicates, experiment repeated twice, MIC = lowest concentration with no growth
Protocol: (§1) The antibacterial activity of the designed cyclic peptides was assayed against P. syringae pv. syringae, X. axonopodis pv. vesicatoria, and E. amylovora at 3.1, 6.2, 12.5, 25, and 50 μM. Peptides BPC194 and BPC198 were also included in these assays for comparison purposes.
(§2) The following plant pathogenic bacterial strains were used: Erwinia amylovora PMV6076 (Institut National de la Recherche Agronomique, Angers, France); Pseudomonas syringae pv. syringae EPS94 (Institut de Tecnologia Agroalimentària, Universitat de Girona, Spain); and Xanthomonas axonopodis pv. vesicatoria 2133-2 (Instituto Valenciano de Investigaciones Agrarias, Valencia, Spain). All bacteria were stored in Luria Bertani (LB) broth supplemented with glycerol (20%) and maintained at –80 °C. E. amylovora and P. syringae pv. syringae were scrapped from LB agar after growing for 24 h and X. axonopodis pv. vesicatoria after growing for 48 h at 25 °C. The cell material was suspended in sterile water to obtain a suspension of 10^8 CFU mL^−1.
(§3) Lyophilized peptides were solubilized in sterile Milli-Q water to a final concentration of 1000 μM and sterilized through a 0.22-μm pore filter. For MIC assessment, dilutions of the synthetic peptides were made to obtain a final concentration of 500, 250, 125, 62.5, 31.2, and 15.6 μM. Twenty microlitres of each dilution were mixed in a microtiter plate well with 20 μL of the corresponding suspension of the bacterial indicator and 160 μL of Trypticase Soy Broth (TSB) (BioMèrieux, Craponne, France) to a total volume of 200 μL. Three replicates for each strain, peptide, and concentration were used. Positive controls contained water instead of peptide and negative controls contained peptides without bacterial suspension. Bacterial growth was automatically determined by an optical density measurement at 600 nm (Bioscreen C, Labsystem, Helsinki, Finland). Microplates were incubated at 25 °C with 20 s shaking before hourly absorbance measurements for 48 h. Each experiment was repeated twice. The MIC was taken as the lowest peptide concentration with no growth at the end of the experiment. The inhibition of growth (I) was calculated as a percentage of the positive control using the equation: I = 100 × [(AC − AS)/AC], where AC is the area under the curve of the control, and AS is the area under the curve of a given peptide concentration.

[2] = system: Pseudomonas syringae pv. syringae EPS94; conditions: 48 h
Protocol: as §1, §2, §3

[3] = system: Xanthomonas axonopodis pv. vesicatoria 2133-2; conditions: Trypticase Soy Broth, 25 °C, 48 h, OD 600 nm (Bioscreen C), peptides at 3.1, 6.2, 12.5, 25, 50 μM, three replicates, experiment repeated twice, MIC = lowest concentration with no growth
Protocol: as §1, §2, §3

For `CC(C)C[C@@H]1NC(=O)[C@H](CCCCN)NC(=O)[C@H](CCCCN)NC(=O)[C@H](CCC(N)=O)NC(=O)[C@H](CC(C)C)NC(=O)[C@H](CCCCN)NC(=O)[C@H](CCCCN)NC(=O)[C@H](Cc2ccccc2)NC(=O)[C@H](CCCCN)NC(=O)[C@H](CCCCN)NC1=O` [BPC194, c(KKLKKFKKLQ)] (cyclo(FKKLQKKLKK)), the “MIC Intervals, Ea” value [1] was 6.2 to 12.5 µM, the “MIC Intervals, Pss” value [2] was 3.1 to 6.2 µM and the “MIC Intervals, Xav” value [3] was 3.1 to 6.2 µM.

`CC(C)C[C@@H]1NC(=O)[C@H](CCCCN)NC(=O)[C@H](CCCCN)NC(=O)[C@H](CCCCN)NC(=O)[C@H](CCCCN)NC(=O)[C@H](CC(C)C)NC(=O)[C@H](CCCCN)NC(=O)[C@H](Cc2ccccc2)NC(=O)[C@H](CCCCN)NC(=O)[C@H](CCC(N)=O)NC1=O` [BPC922] (cyclo(FKLKKKKLQK)) was tested, and the “MIC Intervals, Ea” value [1] was >50 µM, the “MIC Intervals, Pss” value [2] was 12.5 to 25 µM and the “MIC Intervals, Xav” value [3] was 12.5 to 25 µM.

In the case of `CC(C)C[C@@H]1NC(=O)[C@H](CCC(N)=O)NC(=O)[C@H](CC(C)C)NC(=O)[C@H](Cc2ccccc2)NC(=O)[C@H](CCCCN)NC(=O)[C@H](CCCCN)NC(=O)[C@H](CCCCN)NC(=O)[C@H](CCCCN)NC(=O)[C@H](CCCCN)NC(=O)[C@H](CCCCN)NC1=O` [BPC484] (cyclo(FLQLKKKKKK)), the “MIC Intervals, Ea” value [1] is reported as >50 µM, the “MIC Intervals, Pss” value [2] is reported as 12.5 to 25 µM and the “MIC Intervals, Xav” value [3] is reported as 25 to 50 µM.

For `CC(C)C[C@@H]1NC(=O)[C@H](CCCCN)NC(=O)[C@H](CCCCN)NC(=O)[C@H](CCCCN)NC(=O)[C@H](CCCCN)NC(=O)[C@H](Cc2ccccc2)NC(=O)[C@H](CCCCN)NC(=O)[C@H](CC(C)C)NC(=O)[C@H](CCCCN)NC(=O)[C@H](CCC(N)=O)NC1=O` [BPC916] (cyclo(FKKKKLQKLK)), the “MIC Intervals, Ea” value [1] was >50 µM, the “MIC Intervals, Pss” value [2] was 6.2 to 12.5 µM and the “MIC Intervals, Xav” value [3] was 12.5 to 25 µM.

In the case of `CC(C)C[C@@H]1NC(=O)[C@H](CCC(N)=O)NC(=O)[C@H](CC(C)C)NC(=O)[C@H](CCCCN)NC(=O)[C@H](CCCCN)NC(=O)[C@H](CCCCN)NC(=O)[C@H](CCCCN)NC(=O)[C@H](Cc2ccccc2)NC(=O)[C@H](CCCCN)NC(=O)[C@H](CCCCN)NC1=O` [BPC496] (cyclo(FKKKKLQLKK)), the “MIC Intervals, Ea” value [1] is reported as >50 µM, the “MIC Intervals, Pss” value [2] is reported as 6.2 to 12.5 µM and the “MIC Intervals, Xav” value [3] is reported as 6.2 to 12.5 µM.

With `CC(C)C[C@@H]1NC(=O)[C@H](CCCCN)NC(=O)[C@H](CCC(N)=O)NC(=O)[C@H](CCCCN)NC(=O)[C@H](CCCCN)NC(=O)[C@H](CC(C)C)NC(=O)[C@H](Cc2ccccc2)NC(=O)[C@H](CCCCN)NC(=O)[C@H](CCCCN)NC(=O)[C@H](CCCCN)NC1=O` [BPC914] (cyclo(FLKKQKLKKK)) the “MIC Intervals, Ea” value [1] was >50 µM, the “MIC Intervals, Pss” value [2] was 12.5 to 25 µM and the “MIC Intervals, Xav” value [3] was 12.5 to 25 µM.

With `CC(C)C[C@@H]1NC(=O)[C@H](CCC(N)=O)NC(=O)[C@H](CCCCN)NC(=O)[C@H](CCCCN)NC(=O)[C@H](CC(C)C)NC(=O)[C@H](Cc2ccccc2)NC(=O)[C@H](CCCCN)NC(=O)[C@H](CCCCN)NC(=O)[C@H](CCCCN)NC(=O)[C@H](CCCCN)NC1=O` [BPC494] (cyclo(FLKKQLKKKK)) the “MIC Intervals, Ea” value [1] was >50 µM, the “MIC Intervals, Pss” value [2] was 6.2 to 12.5 µM and the “MIC Intervals, Xav” value [3] was 6.2 to 12.5 µM.

With `CC(C)C[C@@H]1NC(=O)[C@H](CCCCN)NC(=O)[C@H](CCCCN)NC(=O)[C@H](Cc2ccccc2)NC(=O)[C@H](CCCCN)NC(=O)[C@H](CCCCN)NC(=O)[C@H](CCCCN)NC(=O)[C@H](CC(C)C)NC(=O)[C@H](CCCCN)NC(=O)[C@H](CCC(N)=O)NC1=O` [BPC198, c(KLKKKFKKLQ)] (cyclo(FKKLQKLKKK)) the “MIC Intervals, Ea” value [1] was 12.5 to 25 µM, the “MIC Intervals, Pss” value [2] was 3.1 to 6.2 µM and the “MIC Intervals, Xav” value [3] was 3.1 to 6.2 µM.

`CC(C)C[C@@H]1NC(=O)[C@H](CCCCN)NC(=O)[C@H](CCCCN)NC(=O)[C@H](CCCCN)NC(=O)[C@H](Cc2ccccc2)NC(=O)[C@H](CCCCN)NC(=O)[C@H](CCC(N)=O)NC(=O)[C@H](CCCCN)NC(=O)[C@H](CCCCN)NC(=O)[C@H](CC(C)C)NC1=O` [BPC920] (cyclo(FKKKLLKKQK)) was tested, and the “MIC Intervals, Ea” value [1] was >50 µM, the “MIC Intervals, Pss” value [2] was 12.5 to 25 µM and the “MIC Intervals, Xav” value [3] was 25 to 50 µM.

`CC(C)C[C@@H]1NC(=O)[C@H](CCCCN)NC(=O)[C@H](CCCCN)NC(=O)[C@H](CCCCN)NC(=O)[C@H](CC(C)C)NC(=O)[C@H](CCCCN)NC(=O)[C@H](CCC(N)=O)NC(=O)[C@H](Cc2ccccc2)NC(=O)[C@H](CCCCN)NC(=O)[C@H](CCCCN)NC1=O` [BPC924] (cyclo(FQKLKKKLKK)) was tested, and the “MIC Intervals, Ea” value [1] was 12.5 to 25 µM and the “MIC Intervals, Xav” value [3] was 1.6 to 3.1 µM.

In the case of `CC(C)C[C@@H]1NC(=O)[C@H](CCCCN)NC(=O)[C@H](CCCCN)NC(=O)[C@H](CCCCN)NC(=O)[C@H](Cc2ccccc2)NC(=O)[C@H](CCCCN)NC(=O)[C@H](CCC(N)=O)NC(=O)[C@H](CC(C)C)NC(=O)[C@H](CCCCN)NC(=O)[C@H](CCCCN)NC1=O` [BPC918] (cyclo(FKKKLKKLQK)), the “MIC Intervals, Ea” value [1] is reported as 12.5 to 25 µM and the “MIC Intervals, Xav” value [3] is reported as 1.6 to 3.1 µM.

In the case of `CC(C)C[C@@H]1NC(=O)[C@H](CCCCN)NC(=O)[C@H](CCCCN)NC(=O)[C@H](CCC(N)=O)NC(=O)[C@H](Cc2ccccc2)NC(=O)[C@H](CCCCN)NC(=O)[C@H](CCCCN)NC(=O)[C@H](CC(C)C)NC(=O)[C@H](CCCCN)NC(=O)[C@H](CCCCN)NC1=O` [BPC490] (cyclo(FQKKLKKLKK)), the “MIC Intervals, Ea” value [1] is reported as 12.5 to 25 µM and the “MIC Intervals, Xav” value [3] is reported as 3.1 to 6.2 µM.

In the case of `CC(C)C[C@@H]1NC(=O)[C@H](CCCCN)NC(=O)[C@H](CCC(N)=O)NC(=O)[C@H](Cc2ccccc2)NC(=O)[C@H](CCCCN)NC(=O)[C@H](CC(C)C)NC(=O)[C@H](CCCCN)NC(=O)[C@H](CCCCN)NC(=O)[C@H](CCCCN)NC(=O)[C@H](CCCCN)NC1=O` [BPC488] (cyclo(FQKLKKKKLK)), the “MIC Intervals, Ea” value [1] is reported as >50 µM and the “MIC Intervals, Xav” value [3] is reported as 6.2 to 12.5 µM.

`CC(C)C[C@@H]1NC(=O)[C@H](CCCCN)NC(=O)[C@H](CCCCN)NC(=O)[C@H](CCCCN)NC(=O)[C@H](Cc2ccccc2)NC(=O)[C@H](CC(C)C)NC(=O)[C@H](CCCCN)NC(=O)[C@H](CCCCN)NC(=O)[C@H](CCCCN)NC(=O)[C@H](CCC(N)=O)NC1=O` [BPC480] (cyclo(FKKKLQKKKL)) was tested, and the “MIC Intervals, Ea” value [1] was >50 µM, the “MIC Intervals, Pss” value [2] was 12.5 to 25 µM and the “MIC Intervals, Xav” value [3] was 12.5 to 25 µM.

In the case of `CC(C)C[C@@H]1NC(=O)[C@H](CCCCN)NC(=O)[C@H](CCC(N)=O)NC(=O)[C@H](CC(C)C)NC(=O)[C@H](CCCCN)NC(=O)[C@H](Cc2ccccc2)NC(=O)[C@H](CCCCN)NC(=O)[C@H](CCCCN)NC(=O)[C@H](CCCCN)NC(=O)[C@H](CCCCN)NC1=O` [BPC482] (cyclo(FKLQKLKKKK)), the “MIC Intervals, Ea” value [1] is reported as >50 µM and the “MIC Intervals, Xav” value [3] is reported as 6.2 to 12.5 µM.

In the case of `CC(C)C[C@@H]1NC(=O)[C@H](CCC(N)=O)NC(=O)[C@H](Cc2ccccc2)NC(=O)[C@H](CC(C)C)NC(=O)[C@H](CCCCN)NC(=O)[C@H](CCCCN)NC(=O)[C@H](CCCCN)NC(=O)[C@H](CCCCN)NC(=O)[C@H](CCCCN)NC(=O)[C@H](CCCCN)NC1=O` [BPC486] (cyclo(FQLKKKKKKL)), the “MIC Intervals, Ea” value [1] is reported as >50 µM and the “MIC Intervals, Pss” value [2] is reported as 12.5 to 25 µM.

With `CC(C)C[C@@H]1NC(=O)[C@H](CCCCN)NC(=O)[C@H](CCCCN)NC(=O)[C@H](CCCCN)NC(=O)[C@H](CCC(N)=O)NC(=O)[C@H](Cc2ccccc2)NC(=O)[C@H](CCCCN)NC(=O)[C@H](CCCCN)NC(=O)[C@H](CCCCN)NC(=O)[C@H](CC(C)C)NC1=O` [BPC492] (cyclo(FQKKKLLKKK)) the “MIC Intervals, Ea” value [1] was >50 µM, the “MIC Intervals, Pss” value [2] was 12.5 to 25 µM and the “MIC Intervals, Xav” value [3] was 12.5 to 25 µM.
